Six molecules from patent publication US10335382B2, “Use of hydrogen sulfide synthesis inhibitors for cancer therapy” (THE BOARD OF REGENTS OF THE UNIVERSITY OF TEXAS SYSTEM, priority 2013, dated 2019) can be followed below.

For one assay, the system named is HCT116 colon cancer cell. Briefly: HCT116 colon cancer cell proliferation (xCELLigence). It is filed as cell-based, human. The conditions noted are these: for inhibition at 300 µM / IC50: Homo sapiens, HCT-116; for IC50: read-out: IC50 (μM), inhibition of HCT116 colon cancer cell proliferation. The protocol: Cellular proliferation assays are conducted in HCT116 CRC cells in vitro, using the Roche XCelligence method. Concentration-response curves with the various AOAA analogs are prepared (concentration range: 1, 3, 10, 100, 300 and 600 μM). AOAA is used as the reference control, which, according to preliminary data, has an IC50 of approximately 300 μM. Control proliferation studies in the non-carcinogenic colonic epithelial cell line NCM356 are used to confirm cancer-cell selectivity. Since the NCM356 cells contain low levels of CBS, based on previous studies it is expect that AOAA (and its prodrugs) will only exert modest antiproliferative effects in these cells. Proliferation-inhibitory effects of the AOAA prodrugs in NCM356 cells indicate CBS-independent pharmacological actions. A collection of human colorectal tumor tissue samples (and surrounding non-cancerous tissue) are used to test the conversion of the AOAA prodrugs to AOAA in a number of cancer samples.
(§1) Cellular migration and invasion assays were performed as described (Chao et al. (1996) Cancer Res. 56:4811-19). Briefly, 10^5 cells were suspended in serum-free media containing 0.1% BSA and then added to 6.5 mm Transwell chambers ([…]) uncoated (migration assay) or coated with a thin layer (45 μl) of growth factor reduced matrigel (cell invasion assay). Cells were allowed to migrate toward the bottom chamber containing fibroblast (NIH-3T3 cells) conditioned media at 37° C. for 6 or 24 h for cell migration and invasion, respectively. Migrated and invaded cells were then fixed in Carson's fixative, stained in 0.33% toluidine blue and quantified by visual counting. For the HCT116-EAhy926 co-culture experiment, the cancer cell line was grown to confluence in the bottom wells of the transwell chambers and then endothelial cell migration was assessed (Coletta et al. (2012) Proc Natl Acad Sci USA. 109:9161-66). For assessment of colon cell proliferation, the xCELLigence system (Roche) was used (Szabo and Papapetropoulos (2011) Br J Pharmacol. 164:853-65).
For assessment of cell proliferation, the xCELLigence system (Roche) was used. Briefly, HCT116 cells were cultured until approximately 70% confluence. Cells were then detached by Trypsin-EDTA and resuspended in fresh culture media at a concentration of 30,000 cells/ml. 200 μl of cell suspension was added to each well (6,000 cells/well) of a E-plate 96, a specially designed 96-well microtiter plate containing interdigitated microelectrodes to non-invasively monitor the cell proliferation by measuring the relative change in the electrical impedance of the cell monolayer, a unitless parameter named cell index (CI). Cells were then treated with YD02-51 and proliferation was monitored for 48 hours.

A further assay has as its system HCT116 tumor xenografts. In words: HCT116 tumor xenograft in nude mice. It is filed as in vivo, Nu/nu Balb/C female mice. As to conditions: 0.1, 0.5 or 1 mg/kg s.c. 6 days/week; harvest Day 28. The protocol: Nu/nu Balb/C female mice (8-10 weeks) were injected subcutaneously in the right and left dorsum (10^6 cells/side with HCT-116 cells). One week later, the mice were randomized and subcutaneous injections of phosphate buffered saline (PBS) or AOAA (9 mg/kg/day) were performed 6 days/week. Tumor diameters were measured transcutaneously using calipers and tumor volumes were calculated using the formula V=(π/6)hd^2. T-test comparisons of the tumor volumes and final weights at harvest were performed. Xenotrials with patient-derived xenografts (PTX) were performed on nu/nu mice implanted subcutaneously with a piece of Passage 2 tumor measuring 2-5 mm^3 each. When a small palpable tumor was evident at 7-10 days, the mice with tumor take were randomized and subjected to subcutaneous injection of vehicle or AOAA (9 mg/kg/day) 6 days/week. Specimens were fixed with 10% formalin and embedded in paraffin. 5 μm sections were stained with hematoxylin and eosin. Each in vivo experiment was repeated at least twice.
Tissue preparation, immunostaining of CD31, and evaluation of microvessel density with the Chakley reticle was performed as described (Chao et al. (1996) Cancer Res. 56:4811-19).
Nu/nu Balb/c female mice (8-10 weeks) were injected subcutaneously in the right and left dorsum (10^6 cells/side with HCT116 cells). One week later, the mice were randomized and subcutaneous injection of phosphate buffered saline (PBS control) or YD2-51 (0.1, 0.5 or 1 mg/kg) was performed 6 days/week. Tumor volumes and final weights at harvest (post-tumor injection Day 28) were performed and tumor weight/animal weight ratios calculated.

For another assay, the system named is HCT116 cells. Briefly: HCT116 cell migration and invasion (Transwell). It is filed as cell-based, human. As to conditions: NaHS 30 μM in lower chamber; serum-free media. The method, then: FIG. 3. […] (A, B) The lentiviral shRNA vectors targeting CBS (shCBS) and CSE (shCSE) were transfected into HCT116 cells. A non-targeting sequence was used as control (shNT). […] Following CBS and CSE silencing, cells were seeded at the density of 3000 cells/well in xCELLigence plates and proliferation was monitored for 36 hours. […] The NCM356 cells were infected overnight with a CBS expressing adenovirus (Ad-CBS, 10 multiplicity of infection (MOI)) or its control, a green fluorescent protein (Ad-GFP). The culture media was then replaced and cells were seeded in XCelligence plates at 3000 cells/well. Cell proliferation was then measured real-time over 36 hours. […] (H, I) The effect of AOAA and NaHS was also tested on HCT116 cell migration (H) and invasion (I). Cells were pretreated either with vehicle or AOAA (1 mM) and seeded in serum-free DMEM (0.1% albumin) in the upper chamber of a trans-well insert uncoated (migration assay) or coated with growth factor reduced matrigel (invasion assay). Migration and invasion were stimulated by fibroblast-conditioned media in the lower chamber for 6 and 24 hours, respectively. […] (J) In a co-culture of human endothelial cells (EAhy926) and colon cancer cells (HCT116), HCT 116 cells were seeded in the lower chamber of a trans-well insert and cultured to confluence. Endothelial cells were then seeded into the upper chamber in serum-free DMEM and allowed to migrate for 4 hours at 37° C. […] Western blots are representative of at least three independent experiments; proliferation/migration/invasion assays and H2S measurements represent mean±SEM of n=3 determinations.
as §1, with “109:9161-66).” for “109:9161-66). For assessment of colon cell proliferation, the xCELLigence system (Roche) was used (Szabo and Papapetropoulos (2011) Br J Pharmacol. 164:853-65).”

Assay [1] concerns peritumor microvessel blood flow. Briefly: Tumor microvascular blood flow (laser Doppler). It is filed as in vivo, mice. As to conditions: intratumoral injection; AOAA 9 mg/kg, L-cysteine 1 mg/kg. The protocol: FIG. 6. L-Cysteine increases, while AOAA reduces microvessel blood flow in tumor bearing mice. Tumor bearing mice were anesthetized by i.p. injection of ketamine-xylazine and a laser Doppler (PeriFlux system 5000) was placed on top of the tumor for microvessel blood flow measurements. After a stabilization period, L-Cys or AOAA were injected subcutaneously in proximity of the tumor. […] Data represent mean±SEM of n=6 determinations.
Skin microvascular blood flow was measured using a PeriFlux 5000 laser-Doppler flowmeter. Mice bearing PTX were anesthetized by ketamine-xylazine (i.p.). The laser-Doppler probe was placed on top of the tumors and a stable basal signal was recorded. Changes in the subcutaneous microcirculatory perfusion were detected following intratumoral injections of either L-cysteine (1 mg/kg) or AOAA (9 mg/kg).

Assay [2] concerns mitochondria isolated from HCT116 cells. In words: Bioenergetic analysis in isolated mitochondria. The conditions noted are these: L-cysteine 30 nM; mitochondria from control shNT cells. It is filed as cell-based, human. The method, then: Bioenergetic measurements in mitochondria isolated from shNT and shCBS HCT-116 cells were conducted in the absence or presence of L-cysteine (30 nM) (Módis et al. (2013) FASEB J 27:601-11; Wu et al. (2007) Am J Physiol Cell Physiol. 292:C125-36). Basal respiration (State 2) in the presence of succinate and rotenone was measured, followed by State 3 (phosphorylating respiration), in the presence of ADP. State 4o was determined after the addition of oligomycin, and maximal uncoupler-stimulated respiration (State 3u) was assessed in the presence of FCCP.

“Also recorded” adds a separate entry of the source.

What is called inhibition is the relative decrease from the control value, in per cent.

In the case of `CC(C)(C)OC(=O)NOCC(=O)O` [YD-2-23], in the assay on HCT116 colon cancer cell (HCT116), the inhibition at 300 µM worked out at 71%. Besides, the IC50 in the assay with HCT116 colon cancer cell was 207 µM.
Consider `CCC(CC)OC(=O)CON` [YD-2-51, pentan-3-yl 2-(aminooxy)acetate], for which the “tumor cell proliferation (cell index)” value with HCT116 colon cancer cell (HCT116, 6,000 cells/well, monitored 48 hours) is reported as “potent, concentration-dependent inhibition”. Besides, the “tumor growth in tumor-bearing mice” value in the assay with HCT116 tumor xenografts was “inhibited tumor growth”.
Take `[Na+].[SH-]` [NaHS, sodium hydrogen sulfide]: in the assay with HCT116 cells, the HCT116 cell invasion entry is “slightly enhanced” and the HCT116 cell migration entry is “slightly enhanced”.
With `COC(=O)CON` [YD-1-71, aminooxyacetic acid methyl ester], in the assay on HCT116 colon cancer cell (HCT116), the “antiproliferative effect in HCT116 compared with parent AOAA” value is on record as “markedly enhances the antiproliferative effect; also recorded: substantially lower concentrations” and the inhibition at 300 µM turned out to be 80%. In the assay with HCT116 colon cancer cell, the IC50 was 181 µM.
Molecule `NOCC(=O)OCc1ccccc1` [YD-2-22] came in with an inhibition at 300 µM with HCT116 colon cancer cell (HCT116) of 91%. For the same molecule, in the assay on HCT116 colon cancer cell, the IC50 turned out to be 159 µM.
`N[C@@H](CS)C(=O)O` [L-cysteine]: the “peritumor / skin microvessel blood flow” value in assay [1] is “increased”. In addition, the “OCR in state 3 and state 3u respiration” value in assay [2] is “elevates OCR”.
